Source: publication PMC10364322, “Evaluation of chronic drug-induced electrophysiological and cytotoxic effects using human-induced pluripotent stem cell-derived cardiomyocytes (hiPSC-CMs)” (Frontiers in Pharmacology, 2023)

Columns and labels:
[1] = cited from earlier work; for Free Cmax: free therapeutic Cmax in humans, ref FDA-approved drug packages, PharmaPendium
[2] = tested on: hiPSC-CMs (iCell-Cardiomyocytes^2); test: MEA impedance (cytotoxicity readout) in hiPSC-CMs

Row | Compound | Free Cmax [1] | Imp (impedance), % change from baseline ([2]; 0.1 µM, 2h) | Imp (impedance), % change from baseline ([2]; 0.1 µM, 24h) | Imp (impedance), % change from baseline ([2]; 0.1 µM, 48h) | Imp (impedance), % change from baseline ([2]; 0.1 µM, 72h) | Imp (impedance), % change from baseline ([2]; 0.1 µM, 96h) | Imp (impedance), % change from baseline ([2]; 0.3 µM, 2h) | Imp (impedance), % change from baseline ([2]; 0.3 µM, 24h) | Imp (impedance), % change from baseline ([2]; 0.3 µM, 48h) | Imp (impedance), % change from baseline ([2]; 0.3 µM, 72h) | Imp (impedance), % change from baseline ([2]; 0.3 µM, 96h) | Imp (impedance), % change from baseline ([2]; 1 µM, 2h) | Imp (impedance), % change from baseline ([2]; 1 µM, 24h) | Imp (impedance), % change from baseline ([2]; 1 µM, 48h) | Imp (impedance), % change from baseline ([2]; 1 µM, 72h) | Imp (impedance), % change from baseline ([2]; 1 µM, 96h) | Imp (impedance), % change from baseline ([2]; 3 µM, 72h) | Imp (impedance), % change from baseline ([2]; 3 µM, 96h) | Imp (impedance), % change from baseline ([2]; 3 µM, 2h) | Imp (impedance), % change from baseline ([2]; 3 µM, 24h) | other results
1 | Cc1cn(-c2cc(NC(=O)c3ccc(C)c(Nc4nccc(-c5cccnc5)n4)c3)cc(C(F)(F)F)c2)cn1 [Nilotinib] | 100 nM | -2±3% | -12±3% | 4±10% | -6±4% | -1±5% | -1±3% | -11±5% | 3±7% | -2±4% | -1±5% | 4±7% | -8±6% | 13±17 % | 2±5 % | 4±14% | – | – | – | – | Imp (impedance), % change from baseline ([2]; 0.01 µM, 2h): -2±3%; Imp (impedance), % change from baseline ([2]; 0.01 µM, 24h): -14±3%; Imp (impedance), % change from baseline ([2]; 0.01 µM, 48h): -4±4%; Imp (impedance), % change from baseline ([2]; 0.01 µM, 72h): -4±15%; Imp (impedance), % change from baseline ([2]; 0.01 µM, 96h): -3±15%; effect on impedance ([2]; all concentrations tested, up to 96 h): without relevant changes to impedance
2 | N=C(N)c1ccc(OCCCCCOc2ccc(C(=N)N)cc2)cc1 [Pentamidine] | 200 nM | 6±3% | -2±5% | -5±4% | -6±3% | 1±6% | 6±2% | -3±4% | -4±4% | -8±5% | -5±3% | 5±2% | -4±3% | -6±4% | -13±3% | -18±5% | -28±8 % | -42±9 % | 5±2% | -4±2% | exposures in patients (TdP cases after intravenous administration) ([1]; prolonged intravenous administration, ref Sands et al., 1985, Conte et al., 1986, Cordes et al., 2005): 1 to 5 µM; Imp (impedance), % change from baseline ([2]; 3 µM, 48h): -7±6%
3 | CC(C)(Sc1cc(C(C)(C)C)c(O)c(C(C)(C)C)c1)Sc1cc(C(C)(C)C)c(O)c(C(C)(C)C)c1 [Probucol] | – | – | – | – | – | – | 2±2% | -4±4% | -3±7 % | -4±6% | -3±10% | -1±2% | -6±4% | -3±3% | -8±3% | -2±5% | -10±2% | -7±2% | -2±3% | -7±4% | Imp (impedance), % change from baseline ([2]; 3 µM, 48h): -5±4%; Imp (impedance), % change from baseline ([2]; 10 µM, 2h): -3±1%; Imp (impedance), % change from baseline ([2]; 10 µM, 24h): -7±4%; Imp (impedance), % change from baseline ([2]; 10 µM, 48h): -4±4%; Imp (impedance), % change from baseline ([2]; 10 µM, 72h): -12±3%; Imp (impedance), % change from baseline ([2]; 10 µM, 96h): -8±4%
